Experimental data published in article PMC2841397 (Xenobiotica; the fate of foreign compounds in biological …, 2010).
Where “and” joins values, the source holds several entries; their conditions need not be identical. Equal values may be shown once. Read-outs that look alike come from different tables or passages of the source.

Experiments:
[1] = not given; remark: listed apart in the source
[2] = Urinary excretion after oral administration to rats; assay type: in vivo, rat
[3] = system: β2-AR coupled GS signaling; settings: ref Woo et al. 2009; cited from earlier work
[4] = Mean (CV%)
[5] = Urinary excretion after intravenous administration to rats; assay type: in vivo, rat
cardiomyocytes = settings: ref Beigi et al. 2006, Jóźwiak et al. 2007, cited from earlier work; for maximum contractile response: cardiomyocyte model, Woo et al. 2009
isolated rat enterocytes = settings: ref Koster et al. 1986, cited from earlier work
isolated rat hepatocytes = settings: ref Koster et al. 1986, cited from earlier work
[6] = racemic-Fen 2 mg kg^-1 intravenous, male Wistar rats; ref Koster et al. 1985; cited from earlier work
[7] = rat; ref Koster et al. 1985, 1986; Hildebrandt et al. 1994; cited from earlier work
[8] = intravenous 5 mg kg^-1, n=5, mean
[9] = model parameter, iv 5 and oral 25 mg kg^-1

Q: Which Cmax (oral 25 mg kg^-1) does the source give for `CC(Cc1ccc(O)cc1)NCC(O)c1cc(O)cc(O)c1` [(R,R)-Fen, (R,R)-Fenoterol] here?
A: 6.9 ± 0.3 nM

Q: And the Tmax (oral 25 mg kg^-1)?
A: 2 h

Q: And the AUC0-inf. (oral 25 mg kg^-1, mean)?
A: 692 ng·min/mL and 691.7 ng·min/mL

Q: What about the Cmax (oral 25 mg kg^-1, mean) of the same compound?
A: 2.1 ng/mL

Q: What about the T1/2λz (oral 25 mg kg^-1, mean) of the same compound?
A: 2.808 h

Q: And the “net exposure (AUC)” value (oral administration 25 mg kg^-1)?
A: 2.3 nmol·min/mL

Q: And the Tmax ([1]; intravenous 5 mg kg^-1, n=5)?
A: 5.0 min

Q: And the AUC0-inf. [1, 8]?
A: 36200 ng·min/mL

Q: What about the C0 [1, 8] of the same compound?
A: 2237 ng/mL

Q: What about the Cl [1, 8] of the same compound?
A: 146 mL/min/kg and 145.7 mL/min/kg

Q: What about the T1/2λz [1, 8] of the same compound?
A: 1.815 h

Q: And the VSS [1, 8]?
A: 8.2 L/kg

Q: And the “area under the curve (AUC)” value ([1]; intravenous administration)?
A: 119 nmol·min/mL

Q: And the “Dose (%) excreted into urine” value ([2]; after oral (R,R)-Fen 25 mg kg^-1, 0-6 h, one animal)?
A: 0.17%

Q: And the “Dose (%) excreted into urine” value ([2]; after oral (R,R)-Fen 25 mg kg^-1, 6-24 h)?
A: 0.16 ± 0.12%

Q: What about the “Dose (%) excreted into urine” value ([2]; after oral (R,R)-MFen 25 mg kg^-1, 0-6 h, individual animals) of the same compound?
A: 0.05% and 0.04%

Q: And the “Dose (%) excreted into urine” value ([2]; after oral (R,R)-MFen 25 mg kg^-1, 6-24 h)?
A: 0.02 ± 0.01%

Q: What about the “dose excreted in the cumulative 24-h urine collection” value ([2]; after oral administration of (R,R)-Fen) of the same compound?
A: less than 1%

Q: And the “administered dose excreted, cumulative urine” value ([2]; after oral administration of (R,R)-MFen)?
A: Trace amounts

Q: What about the “β2-AR coupled GS signaling” value [3] of the same compound?
A: selectively activates

Q: And the CL ([4]; calculated from model parameters, equation (5))?
A: 170 (8%) ml min^-1kg^-1

Q: What about the Vss ([4]; calculated from model parameters, equation (6)) of the same compound?
A: 11.6 (15%) l kg^-1

Q: What about the T1/2λz ([4]; calculated from model parameters, equations (7) and (8)) of the same compound?
A: 96.4 (12%) min

Q: What about the Vc ([4]; model parameter) of the same compound?
A: 3.94 (20%) l kg^-1

Q: And the ka1 ([4]; model parameter)?
A: 0.004 (39%) min^-1

Q: And the ka2 ([4]; model parameter)?
A: 0.167 (79%) min^-1

Q: And the k10 [4, 9]?
A: 0.043 min^-1 and 0.043 (15%) min^-1

Q: And the k12 [4, 9]?
A: 0.023 (26%) min^-1

Q: And the k21 [4, 9]?
A: 0.012 (18%) min^-1

Q: What about the F ([4]; model parameter, systemic bioavailability) of the same compound?
A: 0.473 (25%)

Q: And the “Dose (%) excreted into urine” value ([5]; after intravenous (R,R)-Fen 5 mg kg^-1, 0-6 h, individual animals)?
A: 2.24% and 7.75%

Q: What about the “Dose (%) excreted into urine” value ([5]; after intravenous (R,R)-Fen 5 mg kg^-1, 6-24 h) of the same compound?
A: 1.70 ± 1.77%

Q: What about the “Dose (%) excreted into urine” value ([5]; after intravenous (R,R)-MFen 5 mg kg^-1, 0-6 h) of the same compound?
A: 1.43 ± 0.21%

Q: What about the “Dose (%) excreted into urine” value ([5]; after intravenous (R,R)-MFen 5 mg kg^-1, 6-24 h) of the same compound?
A: 0.17 ± 0.05%

Q: And the “dose excreted in the cumulative 24-h urine collection” value ([5]; after intravenous administration of (R,R)-Fen)?
A: about 7%

Q: And the “administered dose excreted, 24-h cumulative urinary excretion” value ([5]; after intravenous administration of (R,R)-MFen)?
A: about 2%

Q: And the maximum contractile response (cardiomyocytes)?
A: significant increase

Q: And the “EC50 in the cardiomyocyte model” value (cardiomyocytes)?
A: reduced

Q: What about the “Clint, conversion to (R,R)-Fen-PG” value (isolated rat enterocytes; isolated rat enterocytes) of the same compound?
A: 0.00079 ± 0.0002 mL/min/kg

Q: And the “Clint, conversion to (R,R)-Fen-PG” value (isolated rat hepatocytes; isolated rat hepatocytes)?
A: 0.00148 ± 0.00032 mL/min/kg

Q: Which results are given for `C[C@H](Cc1ccc(O[C@@H]2O[C@H](C(=O)O)[C@@H](O)[C@H](O)[C@H]2O)cc1)NC[C@H](O)c1cc(O)cc(O)c1` [(R,R)-Fen-PG]?
A: observed fraction of (R,R)-Fen-PG formation (isolated rat enterocytes; enterocytes): 0.52 ± 0.01; observed fraction of (R,R)-Fen-PG formation (isolated rat hepatocytes; hepatocytes): 0.28 ± 0.01

Q: With `COc1ccc(CC(C)NCC(O)c2cc(O)cc(O)c2)cc1` [(R,R)-MFen, (R,R)-methoxyfenoterol] as the compound, how does the maximum contractile response (cardiomyocytes) read?
A: significant increase

Q: With `CC(Cc1ccc(O)cc1)NCC(O)c1cc(O)cc(O)c1` [(S,S)-Fen] as the compound, how does the maximum contractile response (cardiomyocytes) read?
A: no observed effect

Q: For `CC(Cc1ccc(O)cc1)NCC(O)c1cc(O)cc(O)c1` (stereo not drawn) [Fen, 5-[1-hydroxy-2-[[2-(4-hydroxyphenyl)-1-methylethyl]-amino]-ethyl]-1,3-benzenediol], which Vss [6] is on record?
A: 1.3 L/kg

Q: And the clearance [6]?
A: 72.8 mL/min/kg

Q: And the k10 [6]?
A: 0.197 min⁻¹

Q: What about the “bioavailability after oral administration” value [7] of the same compound?
A: less than 1%
